Target: PA-IIL lectin (Pseudomonas aeruginosa, UniProt Q9HYN5)
Experiment: Inhibition of binding of HRP-labeled fucosylated polymer (Fuc-PAA-biotin) to immobilized PA-IIL lectin
Method: Biotinylated polymers of Fucose (Fuc-PAA-biotin, GlycoTech Corp.) are allowed to couple HRP-labeled streptavidin (KPL labs) overnight at 4° C. PA-IIL lectin is immobilized in plastic microtiter wells and allowed to react with the HRP-labeled fucosylated polymer. Binding is detected by TMB substrate followed by color development with 1 M H3PO4 (FIG. 20). Conditions chosen for the assay are coating with 3 μg/ml PA-IIL and incubation of inhibitor with 2 μg/ml of fucosylated polymer.

Sequence of PA-IIL lectin (Q9HYN5 entry or part of it): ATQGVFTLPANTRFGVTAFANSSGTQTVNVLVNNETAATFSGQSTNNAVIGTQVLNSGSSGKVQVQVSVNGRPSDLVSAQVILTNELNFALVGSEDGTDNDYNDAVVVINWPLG

Compound	inhibition of PA-IIL lectin (negative control saccharide, data not shown)	IC50
O=C[C@H](O)[C@@H](O)[C@@H](O)[C@H](O)CO [Galactose]	no inhibition	
O=C[C@@H](O)[C@@H](O)[C@H](O)[C@H](O)CO [Mannose]		95 µM

— patent US20040219158A1, “Compositions and methods for diagnosis and therapy of medical conditions involving infection with pseudomonas bacteria” (priority 2003, published 2004)
